Measurements reported in US20040097432A1, “Method of reducing cholesterol” (ACCESS BUSINESS GROUP INTERNATIONAL LLC., priority 2002, published 2004).

Tested on: HepG2 hepatocytes
Assay: Inhibition of cholesterol synthesis in HepG2 hepatocytes (secreted cholesterol and cholesteryl ester, AmplexRed)
Format: cell-based
Protocol: HepG2 hepatocytes were used as a model to study the inhibition of cholesterol synthesis according to the procedures described in Dashti, N., et al., J. Lipid Res. 28:423-436 (1987) and Mohammadi, A., et al., Arterioscler. Thromb. Vasc. Biol., […]:783-793 (1998). […] Amounts of secreted cholesterol and cholesteryl ester are measured from acetate fed hepatocyte culture media using a fluorescent indicator AmplexRed.
The same cholesterol inhibition model used in Example I was used to determine the cholesterol synthesis inhibition of theaflavins, including theaflavin and gallate esters of theaflavin.

## O=c1c(O)cc([C@H]2Oc3cc(O)cc(O)c3C[C@H]2O)cc2c([C@H]3Oc4cc(O)cc(O)c4C[C@H]3O)cc(O)c(O)c12 [theaflavin, Theaflavin]
Homo sapiens, 0.05 mg/ml theaflavin, acetate fed HepG2 culture media, FIG. 1, read-out: inhibitory effect (cholesterol synthesis/release)
  inhibition at 50 µg/mL: ~30%
Same weight basis (tablet weight, 6.7% actives), HepG2, FIG. 1
  dose specific response of hepatocytes compared to Lipotor: comparable or slightly better than Lipotor®

## O=C(O[C@@H]1Cc2c(O)cc(O)cc2O[C@@H]1c1cc(=O)c(O)c2c(O)c(O)cc([C@H]3Oc4cc(O)cc(O)c4C[C@H]3O)c2c1)c1cc(O)c(O)c(O)c1 [theaflavin-3-gallate]
HepG2, dose response FIG. 2, materials of Table I
  cholesterol inhibition activity (contribution among materials tested): provided much of the cholesterol inhibition activity
